The source of these data is ChEMBL document CHEMBL1139457, “Pyrrolo[1,3]benzothiazepine-based serotonin and dopamine receptor antagonists. Molecular modeling, further structure-activity relationship studies, and identification of novel atypical antipsychotic agents” (J Med Chem, 2004).

Where “and” joins values, the source holds several entries; their conditions need not be identical. Equal entries are not always repeated. Calls of active or inactive are those of the source. No cut-off for these calls is given here. Bounds are passed on as bounds.

Experiment [1] concerns the target T1, D(1A) dopamine receptor (Rattus norvegicus, UniProt P18901). Further details: species or system Tissue.
Description: In vitro binding affinity towards Dopamine receptor D1 in rat tissue homogenate using [3H]-SCH- 23390 as radioligand
The target in experiment [2] is T2, D(3) dopamine receptor (Rattus norvegicus, UniProt P19020). The experiment is described as follows: biochemical. Format: cell-based, Sf9.
Description: (§1) In vitro binding affinity towards Dopamine receptor D3 in Sf9 cell membranes using [3H]7-OH-DPAT as radioligand
Experiment [3] concerns the target T3, 5-hydroxytryptamine receptor 2A (Rattus norvegicus, UniProt P14842).
Description: In vitro binding affinity towards 5-hydroxytryptamine 2A receptor in rat tissue homogenate using [3H]ketanserin as radioligand
Experiment [4] is filed under the species Rattus norvegicus. Format: functional. As to conditions: dose 0.3 mg/kg, route intraperitoneal.
Description: Inhibitory activity tested in rats after intraperitoneal administration at 0.3 mg/kg with saline
The species named for experiment [5] is Mus musculus. Briefly: animal or person. Format: functional. Conditions: po.
Description: In vivo inhibitory activity tested in apomorphine climbing mice after oral administration
For experiment [6], the species on record is Rattus norvegicus. The experiment is described as follows: animal or person. Format: functional. Conditions: po.
Description: In vivo inhibition against MK-801 induced hyperactivity in rats after oral administration
For experiment [7], the species on record is Rattus norvegicus. Format: functional.
Description: Minimal inhibitory activity tested in rats after intraperitoneal administration
Experiment [8] has as its target T4, Adrenergic receptor alpha-2 (Rattus norvegicus, UniProt P22086+P19328+P22909).
T4 sequence (P22086 whole entry): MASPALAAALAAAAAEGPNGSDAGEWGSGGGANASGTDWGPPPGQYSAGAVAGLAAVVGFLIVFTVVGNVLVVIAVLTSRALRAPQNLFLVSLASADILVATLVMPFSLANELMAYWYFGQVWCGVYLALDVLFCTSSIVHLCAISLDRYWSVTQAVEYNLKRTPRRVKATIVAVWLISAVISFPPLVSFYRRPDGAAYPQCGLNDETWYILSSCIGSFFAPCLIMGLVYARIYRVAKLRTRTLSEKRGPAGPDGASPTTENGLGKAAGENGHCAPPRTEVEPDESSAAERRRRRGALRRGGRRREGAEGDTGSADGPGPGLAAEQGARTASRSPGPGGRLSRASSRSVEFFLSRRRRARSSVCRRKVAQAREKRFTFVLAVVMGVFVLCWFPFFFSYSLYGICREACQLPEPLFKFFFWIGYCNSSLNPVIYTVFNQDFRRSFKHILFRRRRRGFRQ
T4 sequence (P19328 whole entry): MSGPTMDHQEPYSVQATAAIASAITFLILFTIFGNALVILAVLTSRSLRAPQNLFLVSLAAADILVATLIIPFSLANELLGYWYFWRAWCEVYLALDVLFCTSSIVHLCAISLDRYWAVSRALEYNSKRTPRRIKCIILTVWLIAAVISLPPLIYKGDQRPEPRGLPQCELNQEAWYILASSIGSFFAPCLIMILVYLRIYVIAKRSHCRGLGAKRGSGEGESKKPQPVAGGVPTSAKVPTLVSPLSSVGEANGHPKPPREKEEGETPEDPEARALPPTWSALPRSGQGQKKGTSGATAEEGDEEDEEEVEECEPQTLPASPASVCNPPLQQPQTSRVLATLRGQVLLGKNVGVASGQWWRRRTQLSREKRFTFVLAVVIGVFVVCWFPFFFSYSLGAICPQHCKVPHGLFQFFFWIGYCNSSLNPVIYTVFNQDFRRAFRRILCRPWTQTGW
T4 sequence (P22909 whole entry): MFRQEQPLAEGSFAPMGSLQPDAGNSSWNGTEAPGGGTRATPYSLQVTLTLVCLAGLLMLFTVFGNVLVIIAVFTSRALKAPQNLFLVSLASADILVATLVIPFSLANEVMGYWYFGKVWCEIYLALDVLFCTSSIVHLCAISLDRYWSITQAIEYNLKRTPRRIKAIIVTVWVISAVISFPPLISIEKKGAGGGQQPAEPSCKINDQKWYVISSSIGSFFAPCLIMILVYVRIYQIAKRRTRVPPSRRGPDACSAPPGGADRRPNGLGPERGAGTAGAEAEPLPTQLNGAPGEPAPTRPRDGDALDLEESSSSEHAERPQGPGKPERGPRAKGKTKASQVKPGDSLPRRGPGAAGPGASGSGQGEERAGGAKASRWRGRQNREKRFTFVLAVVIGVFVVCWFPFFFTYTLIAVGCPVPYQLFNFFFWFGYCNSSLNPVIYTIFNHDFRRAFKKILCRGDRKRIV
It is filed as tissue-based, Frontal cortex.
Description: In vitro binding affinity towards alpha-2 adrenergic receptor in rat frontal cortex homogenate using of [3H]clonidine as radioligand

For experiment [9], the target named is Histamine H1 receptor (Rattus norvegicus, UniProt P31390). The experiment is described as follows: biochemical. It is filed as tissue-based, Frontal cortex.
Description: In vitro binding affinity towards Histamine H1 receptor of rat frontal cortex homogenate by using radioligand [3H]pyrilamine
Experiment [10] addresses T5, Adrenergic receptor alpha-1 (Rattus norvegicus, UniProt P15823+P23944+P43140).
T5 sequence (P15823 whole entry): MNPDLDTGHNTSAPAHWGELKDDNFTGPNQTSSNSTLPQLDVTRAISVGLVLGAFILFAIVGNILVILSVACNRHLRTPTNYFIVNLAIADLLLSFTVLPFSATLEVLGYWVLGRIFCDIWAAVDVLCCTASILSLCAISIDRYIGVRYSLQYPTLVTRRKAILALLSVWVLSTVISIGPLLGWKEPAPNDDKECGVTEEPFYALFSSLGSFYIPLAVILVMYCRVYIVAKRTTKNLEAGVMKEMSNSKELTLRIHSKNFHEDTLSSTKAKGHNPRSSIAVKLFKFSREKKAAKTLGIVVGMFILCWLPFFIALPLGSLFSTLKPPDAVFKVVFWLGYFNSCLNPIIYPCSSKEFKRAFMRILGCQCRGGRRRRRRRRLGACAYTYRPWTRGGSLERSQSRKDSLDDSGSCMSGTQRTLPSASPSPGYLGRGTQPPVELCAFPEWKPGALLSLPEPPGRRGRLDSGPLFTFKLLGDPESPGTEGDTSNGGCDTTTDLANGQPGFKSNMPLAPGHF
T5 sequence (P23944 whole entry): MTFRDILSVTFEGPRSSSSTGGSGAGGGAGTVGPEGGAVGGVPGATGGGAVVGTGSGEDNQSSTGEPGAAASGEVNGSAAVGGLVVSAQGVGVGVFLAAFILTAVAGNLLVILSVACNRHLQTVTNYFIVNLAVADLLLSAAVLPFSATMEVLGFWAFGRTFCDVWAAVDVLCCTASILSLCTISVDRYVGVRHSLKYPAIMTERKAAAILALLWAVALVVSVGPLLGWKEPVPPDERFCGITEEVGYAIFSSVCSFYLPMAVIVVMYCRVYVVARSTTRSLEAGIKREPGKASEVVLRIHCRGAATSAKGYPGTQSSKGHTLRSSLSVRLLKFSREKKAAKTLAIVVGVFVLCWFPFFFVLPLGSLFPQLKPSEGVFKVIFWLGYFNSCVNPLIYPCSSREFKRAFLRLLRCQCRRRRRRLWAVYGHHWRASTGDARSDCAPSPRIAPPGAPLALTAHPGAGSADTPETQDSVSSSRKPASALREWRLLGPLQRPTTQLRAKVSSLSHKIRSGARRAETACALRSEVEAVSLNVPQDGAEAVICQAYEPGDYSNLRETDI
T5 sequence (P43140 whole entry): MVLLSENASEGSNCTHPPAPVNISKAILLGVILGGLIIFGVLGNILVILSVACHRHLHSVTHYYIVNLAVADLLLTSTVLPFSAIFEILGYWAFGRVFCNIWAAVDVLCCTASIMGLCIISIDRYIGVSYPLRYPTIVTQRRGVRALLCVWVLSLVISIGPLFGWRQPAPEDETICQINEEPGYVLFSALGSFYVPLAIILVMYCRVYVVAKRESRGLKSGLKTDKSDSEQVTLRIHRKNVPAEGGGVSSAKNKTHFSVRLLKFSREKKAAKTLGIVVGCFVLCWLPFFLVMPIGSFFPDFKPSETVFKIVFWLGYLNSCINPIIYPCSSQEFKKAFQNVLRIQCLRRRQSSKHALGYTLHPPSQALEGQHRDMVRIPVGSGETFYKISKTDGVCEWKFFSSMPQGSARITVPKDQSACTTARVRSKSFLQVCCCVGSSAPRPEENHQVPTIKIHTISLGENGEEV
Format: tissue-based, Frontal cortex.
Description: In vitro binding affinity towards alpha-1 adrenergic receptor in rat frontal cortex homogenate using of [3H]prazosin as radioligand

For experiment [11], the species on record is Mus musculus. Briefly: animal or person. Conditions: po. Format: functional. The source holds these as a separate data set.
Description: In vivo inhibitory activity against 5-MeO-DMT-Induced Head-Twitches in mouse after oral administration
In experiment [12] the target is T6, Muscarinic acetylcholine receptor M1 (Rattus norvegicus, UniProt P08482).
T6 sequence (P08482 whole entry): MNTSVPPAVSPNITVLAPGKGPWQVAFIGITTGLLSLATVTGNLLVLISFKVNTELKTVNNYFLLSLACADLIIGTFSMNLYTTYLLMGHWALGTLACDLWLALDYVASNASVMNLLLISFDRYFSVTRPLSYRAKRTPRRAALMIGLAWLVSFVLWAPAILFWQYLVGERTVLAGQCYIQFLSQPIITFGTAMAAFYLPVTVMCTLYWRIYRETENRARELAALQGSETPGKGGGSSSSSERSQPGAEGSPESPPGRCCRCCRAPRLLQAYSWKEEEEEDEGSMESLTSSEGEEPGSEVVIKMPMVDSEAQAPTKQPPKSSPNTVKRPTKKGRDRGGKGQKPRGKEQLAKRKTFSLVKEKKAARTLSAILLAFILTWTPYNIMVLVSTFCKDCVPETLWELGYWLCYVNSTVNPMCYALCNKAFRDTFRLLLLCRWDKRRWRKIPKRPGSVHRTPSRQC
The experiment is described as follows: biochemical. It is filed as tissue-based, Frontal cortex.
Description: In vitro binding affinity towards M1 receptor of rat frontal cortex homogenate by using radioligand [3H]QNB

Experiment [13] is filed under the species Rattus norvegicus. Briefly: animal or person. It is filed as functional. As to conditions: po. The source holds these as a separate data set.
Description: In vivo inhibition against conditioned avoidance response in rats after oral administration
Experiment [14] addresses 5-hydroxytryptamine receptor 2A (Homo sapiens, UniProt P28223).
Description: In vitro binding affinity towards 5-hydroxytryptamine 2A receptor in human using [3H]ketanserin as radioligand
For experiment [15], the species on record is Rattus norvegicus. Briefly: animal or person. It is filed as functional. As to conditions: po. The source holds these as a separate data set.
Description: In vivo inhibition against catalepsy in rats after oral administration evaluated by metal bar
Experiment [16] is filed under the species Rattus norvegicus. The experiment is described as follows: animal or person. Conditions: po. It is filed as functional. This is another data set of the same source.
Description: In vivo inhibition of spontaneous locomotory activity tested in rats after oral administration
The target of experiment [17] is D(2) dopamine receptor (Rattus norvegicus, UniProt P61169). Further details: species or system Tissue.
Experiment [18] has as its target T1, D(1A) dopamine receptor. Further details: species or system Tissue. The source holds these as a separate data set.
For experiment [19], the species on record is Mus musculus.
The target of experiment [20] is T3, 5-hydroxytryptamine receptor 2A. Further details: species or system Tissue.
Experiment [21] addresses T2, D(3) dopamine receptor. It is filed as cell-based. As to conditions: sf9.
Description: as §1

One may read the Ki as a measure of affinity in units of concentration, obtained from inhibition or displacement. A higher Ki goes with lower affinity. The ED50 is the dose at which the effect has come halfway, by size or by number of responders.

Sequence of D(2) dopamine receptor (P61169 whole entry): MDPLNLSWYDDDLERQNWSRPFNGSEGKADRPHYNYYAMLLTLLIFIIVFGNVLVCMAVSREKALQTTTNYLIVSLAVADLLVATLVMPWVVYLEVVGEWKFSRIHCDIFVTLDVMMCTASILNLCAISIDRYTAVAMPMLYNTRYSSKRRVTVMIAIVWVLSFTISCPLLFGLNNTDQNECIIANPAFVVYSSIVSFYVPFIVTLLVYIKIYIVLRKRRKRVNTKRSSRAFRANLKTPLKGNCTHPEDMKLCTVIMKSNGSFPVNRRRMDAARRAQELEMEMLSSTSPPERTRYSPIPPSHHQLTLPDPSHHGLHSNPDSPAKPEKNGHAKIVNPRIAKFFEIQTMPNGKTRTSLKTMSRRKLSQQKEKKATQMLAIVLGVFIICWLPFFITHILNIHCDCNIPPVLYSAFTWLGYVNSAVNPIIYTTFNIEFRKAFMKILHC
T2 sequence (P19020 whole entry): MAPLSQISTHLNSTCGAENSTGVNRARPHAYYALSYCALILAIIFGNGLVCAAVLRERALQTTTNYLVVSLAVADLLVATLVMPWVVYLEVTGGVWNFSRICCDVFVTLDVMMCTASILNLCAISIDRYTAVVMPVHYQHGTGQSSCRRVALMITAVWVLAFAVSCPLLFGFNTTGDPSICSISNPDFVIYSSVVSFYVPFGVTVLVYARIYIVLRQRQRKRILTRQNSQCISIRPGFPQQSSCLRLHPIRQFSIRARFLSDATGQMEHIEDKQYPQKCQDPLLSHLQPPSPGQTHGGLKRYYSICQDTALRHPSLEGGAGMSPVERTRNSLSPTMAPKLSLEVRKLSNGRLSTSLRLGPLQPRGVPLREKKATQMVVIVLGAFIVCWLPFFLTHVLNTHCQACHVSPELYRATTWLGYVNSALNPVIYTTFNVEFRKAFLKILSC
T3 sequence (P14842 whole entry): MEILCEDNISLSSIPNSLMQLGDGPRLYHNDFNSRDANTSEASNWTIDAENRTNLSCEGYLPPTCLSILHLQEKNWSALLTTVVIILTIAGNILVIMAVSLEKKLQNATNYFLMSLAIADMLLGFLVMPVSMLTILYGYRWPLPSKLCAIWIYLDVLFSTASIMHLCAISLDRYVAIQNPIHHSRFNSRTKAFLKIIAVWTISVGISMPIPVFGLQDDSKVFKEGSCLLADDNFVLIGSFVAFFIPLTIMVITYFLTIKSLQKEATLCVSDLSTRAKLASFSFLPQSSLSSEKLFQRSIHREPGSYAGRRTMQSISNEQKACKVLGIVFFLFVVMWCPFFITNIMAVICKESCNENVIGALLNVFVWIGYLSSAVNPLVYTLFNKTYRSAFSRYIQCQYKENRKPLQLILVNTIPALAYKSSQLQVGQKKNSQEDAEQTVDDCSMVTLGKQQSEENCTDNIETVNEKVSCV
T1 sequence (P18901 whole entry): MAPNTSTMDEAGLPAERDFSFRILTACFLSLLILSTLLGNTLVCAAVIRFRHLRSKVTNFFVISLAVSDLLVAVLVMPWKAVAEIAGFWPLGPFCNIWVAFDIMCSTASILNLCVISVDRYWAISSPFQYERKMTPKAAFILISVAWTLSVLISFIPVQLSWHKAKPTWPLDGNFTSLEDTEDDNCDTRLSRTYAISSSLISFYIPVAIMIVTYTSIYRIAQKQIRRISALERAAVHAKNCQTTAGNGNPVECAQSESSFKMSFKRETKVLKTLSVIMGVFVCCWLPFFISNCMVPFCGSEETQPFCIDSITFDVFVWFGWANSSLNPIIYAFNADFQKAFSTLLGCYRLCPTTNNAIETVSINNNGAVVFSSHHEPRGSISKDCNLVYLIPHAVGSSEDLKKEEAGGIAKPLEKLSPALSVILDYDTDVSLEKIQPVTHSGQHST
Sequence of Histamine H1 receptor (P31390 whole entry): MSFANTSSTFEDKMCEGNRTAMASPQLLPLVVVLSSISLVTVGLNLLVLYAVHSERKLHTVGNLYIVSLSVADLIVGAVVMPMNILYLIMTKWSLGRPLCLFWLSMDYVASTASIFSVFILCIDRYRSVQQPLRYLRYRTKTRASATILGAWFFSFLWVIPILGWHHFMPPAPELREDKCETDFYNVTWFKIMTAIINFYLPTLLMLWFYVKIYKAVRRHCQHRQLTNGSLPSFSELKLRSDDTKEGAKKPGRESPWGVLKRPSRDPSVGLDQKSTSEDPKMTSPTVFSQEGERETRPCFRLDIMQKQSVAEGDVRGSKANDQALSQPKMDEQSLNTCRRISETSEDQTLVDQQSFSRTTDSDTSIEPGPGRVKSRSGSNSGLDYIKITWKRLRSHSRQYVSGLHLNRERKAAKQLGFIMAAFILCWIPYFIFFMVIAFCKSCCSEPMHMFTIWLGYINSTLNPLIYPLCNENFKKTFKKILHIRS
Sequence of 5-hydroxytryptamine receptor 2A (Homo sapiens, UniProt P28223) (P28223 whole entry): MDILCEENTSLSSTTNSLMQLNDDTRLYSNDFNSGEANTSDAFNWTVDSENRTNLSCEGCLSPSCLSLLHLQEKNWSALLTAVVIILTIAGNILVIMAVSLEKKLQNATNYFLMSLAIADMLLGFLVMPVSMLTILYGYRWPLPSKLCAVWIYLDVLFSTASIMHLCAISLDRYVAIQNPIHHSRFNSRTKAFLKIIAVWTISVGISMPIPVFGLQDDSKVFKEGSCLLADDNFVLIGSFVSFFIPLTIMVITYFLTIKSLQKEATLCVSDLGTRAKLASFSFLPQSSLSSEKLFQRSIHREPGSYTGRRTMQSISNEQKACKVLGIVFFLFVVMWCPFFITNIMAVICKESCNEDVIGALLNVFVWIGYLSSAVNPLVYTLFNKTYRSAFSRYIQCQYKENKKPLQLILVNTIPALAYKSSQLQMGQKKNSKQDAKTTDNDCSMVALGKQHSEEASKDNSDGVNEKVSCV

`CN1CCN(C2=Cn3cccc3Sc3ccc(Br)cc32)CC1`: the inhibition constant (Ki) in [1] stood at 0.0034 µM; in experiment [2], 0.00025 µM; in experiment [3] it was 0.00083 µM.
In the case of `CN1CCN(C2=Cn3cccc3Sc3ccccc32)CC1`, in experiment [4], the Correct responses was 80.1% and 81.5%. In addition, the median effective dose (ED50) in experiment [5] was 1.64 mg/kg and 5.5 µmol/kg; in [6], 1.1 mg/kg and 3.69 µmol/kg; in experiment [11] it was 1.99 mg/kg and 6.7 µmol/kg; in experiment [13], 1.1 mg/kg and 3.7 µmol/kg; in experiment [15] it was > 100 mg/kg and > 336 µmol/kg; in experiment [16], 0.51 mg/kg and 1.71 µmol/kg. Moreover, the “Min ID” value in [7] is 1 µM/kg. Further, the Ki in [8] is 1.02 µM; in experiment [9], 0.0027 µM; in [10], 0.0005 µM; in [12], 2.07 µM; in experiment [14] it was 0.0011 µM.
`CN1CCN(C2=Cn3c(C=O)ccc3Sc3ccccc32)CC1`: the inhibition constant (Ki) in [1] is 4.28 µM; in experiment [2], 0.102 µM; in [3] it was 0.02 µM.
For `CN1CCN(C2=Cn3c(CO)ccc3Sc3ccccc32)CC1`, in that order: 1.74 µM, 0.113 µM and 0.019 µM.
Take `CN1CCN(C2=C(C=O)n3c(C=O)ccc3Sc3ccccc32)CC1`: the inhibition constant Ki entry in experiment [17] is “Not Active”; in [18], “Not Active”; in experiment [2], over 1 µM; in [3] it was 2.3 µM.
Regarding `CN1CCN([C@@H]2Cn3cccc3Sc3ccc(Cl)cc32)CC1`, in experiment [19], the ED50 result was “inactive”. For the same molecule, the ED50 amounted to 14.3 µmol/kg in experiment [11] and 115 µmol/kg in [15].
Turning to `COCc1ccc2n1CC(N1CCN(C)CC1)c1cc(Cl)ccc1S2` (configuration not stated), the Ki in experiment [1] is over 1000 µM; in experiment [2], 0.316 µM; in [3], 0.405 µM.
Consider `Cc1ccc2n1C=C(N1CCN(C)CC1)c1ccccc1S2`, for which the Ki came out at 0.0027 µM in [9], 0.0042 µM in experiment [10] and 2.3 µM in experiment [12].
`CC(C)OCc1ccc2n1C=C(N1CCN(C)CC1)c1ccccc1S2`: the Ki in [1] was 7.6 µM; in [2] it was 0.278 µM; in experiment [3] it was 0.217 µM.
Regarding `CN1CCN(C2=Cn3c(/C=N/O)ccc3Sc3ccccc32)CC1`, the inhibition constant (Ki) result is “Not Active” in experiment [17], “Not Active” in experiment [18], 4.26 µM in [2] and 1.98 µM in [3].
Take `O=C1NCCN1CCN1CCN(C2Cn3cccc3Sc3ccc(Cl)cc32)CC1` (configuration not stated): the Ki in experiment [1] was 1.62 µM; in experiment [2], 0.066 µM; in [3], 0.074 µM.
The corresponding values for `CN1CCCN(C2=Cn3cccc3Sc3ccc(Cl)cc32)CC1` are 0.00587 µM, 0.0043 µM and 0.0043 µM.
On to `CN1CCN(C2Cn3c(CO)ccc3Sc3ccc(Cl)cc32)CC1` (configuration not stated), for which the inhibition constant (Ki) entry in experiment [17], in [18], in experiment [20] and in experiment [21] was “Not Active” in each case.
